Data: article PMC12022901 (Frontiers in Pharmacology, 2025)

Columns and labels:
[1] = cited from earlier work
[2] = design: method as in Brown, 2014; conditions: ref Brown, 2014; cited from earlier work
[3] = test system: Coagulation markers (activated partial thromboplastin time and international normalized ratio); assay: Coagulation markers measured 3 h post dose; type: in vivo, human (healthy volunteers)
CYP3A = CYP3A activity assessed by pharmacokinetics of microdosed midazolam (limited sampling, AUC2-4, eCLmet)
Description: We simultaneously quantified the effect on CYP3A activity with an oral midazolam microdose (30 µg) (Figure 1).
Carbamazepine, gabapentin, and pregabalin were dosed to steady-state during a treatment period of 21 d for carbamazepine, 13 d for gabapentin, and 21 d for pregabalin, followed by the evaluation of their perpetrator effects. Steady-state was ensured until the last blood sample was drawn. Carbamazepine was titrated to a maximum dose of 200 mg twice a day, if possible. If this dose could not be reached due to adverse events, carbamazepine was titrated to therapeutic plasma concentrations (5–10 μg/mL), with the lower range chosen to ensure the safety of the participants. Gabapentin was administered at a dose of 400 mg three times a day and pregabalin at a dose of 300 mg twice a day. Single-dose pharmacokinetics of the microdosed FXaI were assessed at baseline and at the end of the above mentioned treatment period, at steady-state of the perpetrator.
All collected samples were processed within 20 min and plasma was stored at ≤ −20°C until analysis.
Non-compartmental analyses were conducted to assess the pharmacokinetics of the FXaI and midazolam utilizing Phoenix WinNonlin 8.3 (Certara, Inc., Princeton, NJ, United States). Cmax and the time to reach Cmax (tmax) were directly obtained from the concentration data. The area under the concentration-time curve from 0 to infinity ( AUC∞ ) was determined using the log-linear trapezoidal rule with extrapolation to infinity. The half-life (t1/2) was calculated as ln2/λz , with the elimination rate constant λz being estimated utilizing log-linear regression of the elimination phase. Apparent oral CL (CL/F) and volume of distribution (Vz/F) were calculated using standard equations for non-compartmental analysis.

[4] = Safety: adverse events in the trial cohorts; conditions: cohort of the named antiepileptic drug
[5] = Pharmacokinetics of factor Xa inhibitors at baseline and at gabapentin steady-state (open-label fixed-sequence DDI trial); conditions: human, in vivo, po, oral microdose cocktail, GM
Description: (§1) A p-value < 0.05 was considered significant.

[6] = Pharmacokinetics of factor Xa inhibitors at baseline and at pregabalin steady-state (open-label fixed-sequence DDI trial); conditions: human, in vivo, po, oral microdose cocktail, GM
Description: as §1

clinical = conditions: for Vd/F: Vz/F; for half-life: t1/2, oral microdose cocktail; for exposure (AUC) during carbamazepine relative to baseline: microdosed FXaI
[7] = healthy volunteers, 7-d rifampin treatment, ref Mendell et al., 2015
[8] = 180 min after edoxaban 60 mg alone
[9] = 180 min after edoxaban 60 mg with carbamazepine
[10] = carbamazepine cohort, at carbamazepine steady-state, with edoxaban 60 mg
[11] = carbamazepine cohort, at carbamazepine steady-state, with microdosed FXaI
[12] = carbamazepine cohort, baseline, with edoxaban 60 mg
[13] = gabapentin cohort, at gabapentin steady-state, with edoxaban 60 mg
[14] = gabapentin cohort, at gabapentin steady-state, with microdosed FXaI
[15] = gabapentin cohort, baseline, with edoxaban 60 mg
[16] = pregabalin cohort, at pregabalin steady-state, with edoxaban 60 mg
[17] = pregabalin cohort, at pregabalin steady-state, with microdosed FXaI
[18] = pregabalin cohort, baseline, with edoxaban 60 mg
[19] = human, in vivo, po, oral microdose cocktail (25 µg apixaban, 50 µg edoxaban, 25 µg rivaroxaban), baseline, GM
[20] = human, in vivo, po, oral microdose cocktail, during carbamazepine steady-state, GM
[21] = human, in vivo, po, oral microdose cocktail, baseline, GM
[22] = human, in vivo, po, oral microdose cocktail, at carbamazepine steady-state, GM
[23] = human, in vivo, po, at carbamazepine steady-state, GM
[24] = human, in vivo, po, baseline, GM
[25] = oral microdose cocktail, at carbamazepine steady-state, GM
[26] = oral microdose cocktail, baseline, GM

CN1CCc2nc(C(=O)N[C@@H]3C[C@@H](C(=O)O)CC[C@@H]3NC(=O)C(=O)Nc3ccc(Cl)cn3)sc2C1 [Edoxaban M-4]
AUC increase [1, 7]: 2.86 fold
Cmax increase [1, 7]: 5.06 fold
anticoagulant effects of M-4 and edoxaban [2]: comparable anticoagulant effects

CN1CCc2nc(C(=O)N[C@@H]3C[C@@H](C(=O)N(C)C)CC[C@@H]3NC(=O)C(=O)Nc3ccc(Cl)cn3)sc2C1 [Edoxaban, edoxaban]
AUC reduction ([1]; co-administration with rifampin, ref Lixiana, 2017): up to 35%
INR, mean [3, 8]: 1.23
aPTT, mean [3, 8]: 33.63
INR, mean [3, 9]: 1.14
aPTT, mean [3, 9]: 29.56
coagulation changes induced by edoxaban ([3]; therapeutic dose or microdose, with gabapentin or pregabalin (data not shown)): not influenced

Cc1ncc2n1-c1ccc(Cl)cc1C(c1ccccc1F)=NC2 [Midazolam, midazolam]
eCLmet (CYP3A; [10]): 5654 mL/h
eCLmet GMR to baseline (CYP3A; [10]): 5.54
eCLmet (CYP3A; [11]): 5636 mL/h
eCLmet GMR to baseline (CYP3A; [11]): 5.52
eCLmet (CYP3A; [12]): 997 mL/h
eCLmet GMR to baseline (CYP3A; [12]): 0.98
eCLmet (CYP3A; carbamazepine cohort, baseline, with microdosed FXaI): 1021 mL/h
decrease of midazolam AUC2-4 (CYP3A; co-administration of carbamazepine): 82%
eCLmet (CYP3A; [13]): 923 mL/h
eCLmet GMR to baseline (CYP3A; [13]): 0.99
eCLmet (CYP3A; [14]): 957 mL/h
eCLmet GMR to baseline (CYP3A; [14]): 1.02
eCLmet (CYP3A; [15]): 931 mL/h
eCLmet GMR to baseline (CYP3A; [15]): 1.0
eCLmet (CYP3A; gabapentin cohort, baseline, with microdosed FXaI): 936 mL/h
effect on midazolam pharmacokinetics (CYP3A; gabapentin steady-state): did not alter
eCLmet (CYP3A; [16]): 1306 mL/h
eCLmet ratio to baseline (CYP3A; [16]): 1.23
eCLmet (CYP3A; [17]): 1198 mL/h
eCLmet ratio to baseline (CYP3A; [17]): 1.13
eCLmet (CYP3A; [18]): 1201 mL/h
eCLmet ratio to baseline (CYP3A; [18]): 1.13
eCLmet (CYP3A; pregabalin cohort, baseline, with microdosed FXaI): 1061 mL/h
effect on midazolam pharmacokinetics (CYP3A; pregabalin steady-state): did not alter

NC(=O)N1c2ccccc2C=Cc2ccccc21 [carbamazepine]
adverse events deemed possibly related to the trial medication [4]: 19
adverse events overall [4]: 29
participants with adverse events [4]: 12 of 13
severe or serious adverse events [4]: none was serious, one was severe

NCC1(CC(=O)O)CCCCC1 [gabapentin]
adverse events deemed possibly related to the trial medication [4]: 21
adverse events overall [4]: 39
participants with adverse events [4]: 11 of 11
severe or serious adverse events [4]: none was severe or serious

CC(C)C[C@H](CN)CC(=O)O [pregabalin]
adverse events deemed possibly related to the trial medication [4]: 25
adverse events overall [4]: 37
participants with adverse events [4]: 11 of 12
severe or serious adverse events [4]: none was severe or serious

COc1ccc(-n2nc(C(N)=O)c3c2C(=O)N(c2ccc(N4CCCCC4=O)cc2)CC3)cc1 [µ-apixaban, apixaban]
AUC(0-inf) ([5]; baseline): 6.95 ng·h/mL
AUC(0-inf) ([5]; during gabapentin steady-state): 6.48 ng·h/mL
Cmax ([5]; baseline): 0.822 ng/mL
Cmax ([5]; during gabapentin steady-state): 0.775 ng/mL
reduction in exposure ([1]; combined use with inducers of both CYP3A4 and P-gp such as carbamazepine, ref Eliquis, 2024): ~50%
AUC(0-inf) ([6]; before pregabalin): 6.2 ng·h/mL
AUC(0-inf) ([6]; during pregabalin steady-state): 6.07 ng·h/mL
Cmax ([6]; before pregabalin): 0.782 ng/mL
Cmax ([6]; during pregabalin steady-state): 0.775 ng/mL
AUC(0-inf) (clinical; [19]): 5.9 ng·h/mL
AUC(0-inf) (clinical; [20]): 3.92 ng·h/mL
Cmax (clinical; [21]): 0.719 ng/mL
Cmax (clinical; [20]): 0.634 ng/mL
Vd/F (clinical; [22]): 36 L
Vd/F (clinical; [21]): 36 L
half-life (clinical; [23]): 3.95 h
half-life (clinical; [24]): 5.97 h
exposure (AUC) during carbamazepine relative to baseline (clinical): 66%
tmax (clinical; oral microdose cocktail (solution), baseline, GM): 1.6 h
CL/F (clinical; [25]): 6.4 L/h
tmax (clinical; [25]): 1.72 h
CL/F (clinical; [26]): 4.2 L/h

O=C(NC[C@H]1CN(c2ccc(N3CCOCC3=O)cc2)C(=O)O1)c1ccc(Cl)s1 [µ-rivaroxaban, rivaroxaban]
AUC(0-inf) ([5]; baseline): 3.23 ng·h/mL
AUC(0-inf) ([5]; during gabapentin steady-state): 2.98 ng·h/mL
Cmax ([5]; baseline): 0.718 ng/mL
Cmax ([5]; during gabapentin steady-state): 0.688 ng/mL
AUC(0-inf) ([6]; before pregabalin): 3.08 ng·h/mL
AUC(0-inf) ([6]; during pregabalin steady-state): 3.03 ng·h/mL
Cmax ([6]; before pregabalin): 0.783 ng/mL
Cmax ([6]; during pregabalin steady-state): 0.744 ng/mL
tmax (clinical; human, in vivo, po): 0.817 h
AUC(0-inf) (clinical; [19]): 3.1 ng·h/mL
AUC(0-inf) (clinical; [20]): 1.73 ng·h/mL
Cmax (clinical; [21]): 0.695 ng/mL
Cmax (clinical; [20]): 0.524 ng/mL
Vd/F (clinical; [22]): 63 L
Vd/F (clinical; [21]): 61 L
half-life (clinical; [23]): 3.02 h
half-life (clinical; [24]): 5.23 h
exposure (AUC) during carbamazepine relative to baseline (clinical): 56%
CL/F (clinical; [25]): 14 L/h
tmax (clinical; [25]): 0.817 h
CL/F (clinical; [26]): 8.0 L/h
